According to BigSolDB 2.1:

| Structure (SMILES) | solubility (mole fraction) (in 1,4-dioxane, 283.15 K) | solubility (mole fraction) (in 1,4-dioxane, 288.15 K) | solubility (mole fraction) (in 1,4-dioxane, 293.15 K) | solubility (mole fraction) (in 1,4-dioxane, 298.15 K) | solubility (mole fraction) (in 1,4-dioxane, 303.15 K) | solubility (mole fraction) (in 1,4-dioxane, 308.15 K) | solubility (mole fraction) (in 1,4-dioxane, 313.15 K) | solubility (mole fraction) (in 1,4-dioxane, 318.15 K) | solubility (mole fraction) (in 1,4-dioxane, 323.15 K) | solubility (mole fraction) (in acetone, 283.15 K) | solubility (mole fraction) (in acetone, 288.15 K) | solubility (mole fraction) (in acetone, 293.15 K) | solubility (mole fraction) (in acetone, 298.15 K) | solubility (mole fraction) (in acetone, 303.15 K) | solubility (mole fraction) (in acetone, 308.15 K) | solubility (mole fraction) (in acetone, 313.15 K) | solubility (mole fraction) (in acetone, 318.15 K) | solubility (mole fraction) (in acetone, 323.15 K) | solubility (mole fraction) (in ethyl acetate, 283.15 K) | solubility (mole fraction) (in ethyl acetate, 288.15 K) | other results |
| --- | --- | --- | --- | --- | --- | --- | --- | --- | --- | --- | --- | --- | --- | --- | --- | --- | --- | --- | --- | --- | --- |
| O=C1OC(=O)c2c(Cl)cccc21 | 0.185 | 0.226 | 0.268 | 0.296 | 0.328 | 0.367 | 0.396 | 0.42 | 0.439 | 0.167 | 0.182 | 0.202 | 0.218 | 0.234 | 0.261 | 0.291 | 0.32 | 0.357 | 0.107 | 0.112 | solubility (mole fraction) (in ethyl acetate, 293.15 K): 0.121; solubility (mole fraction) (in ethyl acetate, 298.15 K): 0.133; solubility (mole fraction) (in ethyl acetate, 303.15 K): 0.154; solubility (mole fraction) (in ethyl acetate, 308.15 K): 0.169; solubility (mole fraction) (in ethyl acetate, 313.15 K): 0.191; solubility (mole fraction) (in ethyl acetate, 318.15 K): 0.225; solubility (mole fraction) (in ethyl acetate, 323.15 K): 0.265 |
| O=C(O)c1cccc(Cl)c1C(=O)O |  |  |  |  |  |  |  |  |  |  |  |  |  |  |  |  |  |  |  |  | solubility (mole fraction) (in water, 283.15 K): 0.00201; solubility (mole fraction) (in water, 288.15 K): 0.00221; solubility (mole fraction) (in water, 293.15 K): 0.00248; solubility (mole fraction) (in water, 298.15 K): 0.00281; solubility (mole fraction) (in water, 303.15 K): 0.00315; solubility (mole fraction) (in water, 308.15 K): 0.00346; solubility (mole fraction) (in water, 313.15 K): 0.00383; solubility (mole fraction) (in water, 318.15 K): 0.0043; solubility (mole fraction) (in water, 323.15 K): 0.00473; solubility (mole fraction) (in water, 328.15 K): 0.00517; solubility (mole fraction) (in water, 333.15 K): 0.0056 |
| O=C(O)c1ccc(Cl)cc1C(=O)O |  |  |  |  |  |  |  |  |  |  |  |  |  |  |  |  |  |  |  |  | solubility (mole fraction) (in water, 283.15 K): 0.0802; solubility (mole fraction) (in water, 288.15 K): 0.0913; solubility (mole fraction) (in water, 293.15 K): 0.109; solubility (mole fraction) (in water, 298.15 K): 0.125; solubility (mole fraction) (in water, 303.15 K): 0.145; solubility (mole fraction) (in water, 308.15 K): 0.169; solubility (mole fraction) (in water, 313.15 K): 0.2; solubility (mole fraction) (in water, 318.15 K): 0.226; solubility (mole fraction) (in water, 323.15 K): 0.262; solubility (mole fraction) (in water, 328.15 K): 0.299; solubility (mole fraction) (in water, 333.15 K): 0.349 |
| O=C1OC(=O)c2cc(Cl)ccc21 | 0.0825 | 0.0992 | 0.124 | 0.142 | 0.166 | 0.205 | 0.25 | 0.298 | 0.359 | 0.201 | 0.222 | 0.246 | 0.287 | 0.316 | 0.369 | 0.427 | 0.473 | 0.522 | 0.178 | 0.184 | solubility (mole fraction) (in ethyl acetate, 293.15 K): 0.206; solubility (mole fraction) (in ethyl acetate, 298.15 K): 0.228; solubility (mole fraction) (in ethyl acetate, 303.15 K): 0.261; solubility (mole fraction) (in ethyl acetate, 308.15 K): 0.293; solubility (mole fraction) (in ethyl acetate, 313.15 K): 0.326; solubility (mole fraction) (in ethyl acetate, 318.15 K): 0.377; solubility (mole fraction) (in ethyl acetate, 323.15 K): 0.437 |
